Experiments:
[1] = target: Proto-oncogene tyrosine-protein kinase Src (Homo sapiens, UniProt P12931); assay: Binding affinity to SRC (unknown origin) assessed as inhibition constant
[2] = target: Tyrosine-protein kinase Lyn (Homo sapiens) (UniProt P07948); assay: Inhibition of LYN (unknown origin) at 0.1 uM relative to control
[3] = target: Tyrosine-protein kinase Fyn (Homo sapiens, UniProt P06241); assay: Inhibition of full-length human recombinant Fyn using Poly(Glu4, Tyr1) as substrate measured for 60 mins by Kinase-Glo reagent based analysis
Chain of Tyrosine-protein kinase Fyn (P06241 whole entry): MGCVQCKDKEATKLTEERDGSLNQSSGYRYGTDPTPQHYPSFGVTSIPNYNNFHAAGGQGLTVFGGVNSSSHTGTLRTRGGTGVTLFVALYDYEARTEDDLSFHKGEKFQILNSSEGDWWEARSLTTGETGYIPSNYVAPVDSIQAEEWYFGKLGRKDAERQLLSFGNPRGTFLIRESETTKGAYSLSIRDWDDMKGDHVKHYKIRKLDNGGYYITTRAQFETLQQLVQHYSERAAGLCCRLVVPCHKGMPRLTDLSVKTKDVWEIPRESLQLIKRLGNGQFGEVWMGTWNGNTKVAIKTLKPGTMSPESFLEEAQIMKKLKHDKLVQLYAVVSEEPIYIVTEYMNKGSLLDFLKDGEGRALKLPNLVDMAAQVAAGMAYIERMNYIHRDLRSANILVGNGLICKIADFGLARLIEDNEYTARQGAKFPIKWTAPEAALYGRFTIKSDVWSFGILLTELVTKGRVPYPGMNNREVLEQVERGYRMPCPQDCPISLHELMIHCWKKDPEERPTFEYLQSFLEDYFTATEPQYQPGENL

Chain of Tyrosine-protein kinase Lyn (Homo sapiens) (P07948 2-512 limits assumed): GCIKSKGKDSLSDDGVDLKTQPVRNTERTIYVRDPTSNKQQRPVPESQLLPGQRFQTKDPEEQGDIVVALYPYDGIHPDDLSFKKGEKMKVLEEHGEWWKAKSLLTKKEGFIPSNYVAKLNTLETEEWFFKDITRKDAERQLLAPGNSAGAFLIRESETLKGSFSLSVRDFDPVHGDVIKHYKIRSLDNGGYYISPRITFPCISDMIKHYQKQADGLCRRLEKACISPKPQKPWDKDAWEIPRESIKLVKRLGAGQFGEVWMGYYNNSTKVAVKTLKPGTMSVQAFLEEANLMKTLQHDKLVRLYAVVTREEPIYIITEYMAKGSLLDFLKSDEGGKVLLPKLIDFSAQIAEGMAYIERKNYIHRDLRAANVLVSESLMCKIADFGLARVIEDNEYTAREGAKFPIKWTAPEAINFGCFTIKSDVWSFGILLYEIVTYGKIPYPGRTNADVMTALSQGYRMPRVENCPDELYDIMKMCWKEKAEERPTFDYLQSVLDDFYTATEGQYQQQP
Chain of Proto-oncogene tyrosine-protein kinase Src (P12931 2-536 limits assumed): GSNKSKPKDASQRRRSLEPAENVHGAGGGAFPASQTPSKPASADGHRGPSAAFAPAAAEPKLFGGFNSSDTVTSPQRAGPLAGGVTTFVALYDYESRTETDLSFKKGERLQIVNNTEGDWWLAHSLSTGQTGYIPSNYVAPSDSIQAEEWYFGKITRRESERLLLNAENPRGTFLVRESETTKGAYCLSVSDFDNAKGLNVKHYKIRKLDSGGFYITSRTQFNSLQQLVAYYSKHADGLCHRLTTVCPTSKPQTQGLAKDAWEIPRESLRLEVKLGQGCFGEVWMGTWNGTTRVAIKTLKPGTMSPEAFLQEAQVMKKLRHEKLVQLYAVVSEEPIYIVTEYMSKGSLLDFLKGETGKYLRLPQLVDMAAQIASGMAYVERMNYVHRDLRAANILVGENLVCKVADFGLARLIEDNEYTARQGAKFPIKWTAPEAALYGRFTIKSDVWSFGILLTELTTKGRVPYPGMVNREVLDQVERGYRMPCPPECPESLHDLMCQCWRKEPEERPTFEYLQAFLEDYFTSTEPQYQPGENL

SMILES | IC50 [3] [nM] | other results
Oc1ccc(F)c(Nc2nc(SCCN3CCOCC3)nc3c2cnn3CC(Cl)c2ccccc2)c1 (centres undefined) |  | Ki [1]: 170 nM
CSc1ccc(C(=O)NCc2cc3c(=O)[nH]c(N)nc3[nH]2)cc1 |  | inhibition [2]: 42%
Cc1nnc(NC2CCCCC2)nc1O | 760 | 
Cc1n[nH]c(Nc2ccc3c(c2)OCO3)nc1=O | 4800 | 

Reference: ChEMBL document CHEMBL5614368, “Fyn, Blk, and Lyn kinase inhibitors: A mini-review on medicinal attributes, research progress, and future insights” (Bioorg Med Chem Lett, 2024)
